Test results from PubChem BioAssay (NCI).
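Here, GI50 denotes the concentration required for 50% inhibition of growth. TGI: concentration producing complete growth inhibition.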

What was measured:
Assay in all cases: NCI-60 cell line screen, 384-well format; in the data active = GI50 below about 0.43 µM; inactive = the rest
[1] = tested on: A549 NSCLC
[2] = tested on: SK-OV-3 ovarian
[3] = tested on: NCI-H23 lung
[4] = tested on: T-47D breast
[5] = tested on: HS 578T breast
[6] = tested on: CCRF-CEM leukemia
[7] = tested on: MDA-MB-231 breast
[8] = tested on: SW-620 colon
[9] = tested on: M14 melanoma
[10] = tested on: MCF7 breast
[11] = tested on: SN12C renal
[12] = tested on: MDA-MB-468 breast
[13] = tested on: SK-MEL-5 melanoma
[14] = tested on: HT29 colon
[15] = tested on: UO-31 renal
[16] = tested on: UACC-62 melanoma
[17] = tested on: MALME-3M melanoma
[18] = tested on: SF-295 CNS
[19] = tested on: NCI-H522 lung
[20] = tested on: NCI-H460 NSCLC
[21] = tested on: HOP-62 NSCLC
[22] = tested on: SNB-75 CNS
[23] = tested on: HCC-2998 colon
[24] = tested on: SR leukemia
[25] = tested on: EKVX NSCLC
[26] = tested on: TK-10 renal
[27] = tested on: LOX IMVI melanoma
[28] = tested on: PC-3 prostate
[29] = tested on: OVCAR-3 ovarian
[30] = tested on: IGROV1 ovarian
[31] = tested on: CAKI-1 renal
[32] = tested on: HCT-15 colon
[33] = tested on: BT-549 breast
[34] = tested on: SK-MEL-28 melanoma
[35] = tested on: RPMI-8226 leukemia
[36] = tested on: SF-268 CNS
[37] = tested on: HOP-92 NSCLC
[38] = tested on: COLO 205 colon
[39] = tested on: K-562 leukemia
[40] = tested on: SF-539 CNS
[41] = tested on: KM12 colon
[42] = tested on: 786-0 renal
[43] = tested on: MOLT-4 leukemia
[44] = tested on: NCI/ADR-RES ovarian
[45] = tested on: RXF 393 renal
[46] = tested on: A498 renal
[47] = tested on: MDA-MB-435 melanoma
[48] = tested on: ACHN renal
[49] = tested on: SNB-19 CNS
[50] = tested on: DU-145 prostate
[51] = tested on: NCI-H322M lung
[52] = tested on: HL-60(TB) leukemia
[53] = tested on: OVCAR-4 ovarian
[54] = tested on: OVCAR-8 ovarian
[55] = tested on: OVCAR-5 ovarian

O=C(NCCCc1cn[nH]c1)c1ccc(-c2ccncc2)c(C#Cc2ccc(F)cc2)c1
252 nM: TGI [46]
15.6 nM: TGI [27]
13.5 nM: TGI [20]
active: GI50 [1] < 10 nM | GI50 [2] < 10 nM | GI50 [3] < 10 nM | GI50 [4] < 10 nM | GI50 [5] < 10 nM | GI50 [6] < 10 nM | GI50 [7] < 10 nM | GI50 [8] < 10 nM | GI50 [9] < 10 nM | GI50 [10] 13 nM | GI50 [11] < 10 nM | GI50 [12] < 10 nM | GI50 [13] < 10 nM | GI50 [14] < 10 nM | GI50 [15] < 10 nM | GI50 [16] < 10 nM | GI50 [17] < 10 nM | GI50 [18] < 10 nM | GI50 [19] < 10 nM | GI50 [20] < 10 nM | GI50 [21] < 10 nM | GI50 [22] < 10 nM | GI50 [23] < 10 nM | GI50 [24] < 10 nM | GI50 [25] < 10 nM | GI50 [26] < 10 nM | GI50 [27] < 10 nM | GI50 [28] < 10 nM | GI50 [29] < 10 nM | GI50 [30] < 10 nM | GI50 [31] < 10 nM | GI50 [32] < 10 nM | GI50 [33] < 10 nM | GI50 [34] < 10 nM | GI50 [35] < 10 nM | GI50 [36] < 10 nM | GI50 [37] < 10 nM | GI50 [38] < 10 nM | GI50 [39] < 10 nM | GI50 [40] < 10 nM | GI50 [41] < 10 nM | GI50 [42] < 10 nM | GI50 [43] < 10 nM | GI50 [44] < 10 nM | GI50 [45] < 10 nM | GI50 [46] < 10 nM | GI50 [47] < 10 nM | GI50 [48] < 10 nM | GI50 [49] < 10 nM | GI50 [50] < 10 nM | GI50 [51] < 10 nM | GI50 [52] < 10 nM | GI50 [53] < 10 nM | GI50 [54] < 10 nM | GI50 [55] < 10 nM
< 10 nM: TGI [1] | TGI [2] | TGI [3] | TGI [4] | TGI [5] | TGI [6] | TGI [7] | TGI [8] | TGI [9] | TGI [11] | TGI [12] | TGI [13] | TGI [14] | TGI [15] | TGI [16] | TGI [17] | TGI [18] | TGI [19] | TGI [21] | TGI [22] | TGI [23] | TGI [24] | TGI [25] | TGI [26] | TGI [28] | TGI [29] | TGI [30] | TGI [31] | TGI [32] | TGI [33] | TGI [34] | TGI [35] | TGI [36] | TGI [37] | TGI [38] | TGI [39] | TGI [40] | TGI [41] | TGI [42] | TGI [43] | TGI [44] | TGI [45] | TGI [47] | TGI [48] | TGI [49] | TGI [50] | TGI [51] | TGI [52] | TGI [53] | TGI [54] | TGI [55]
26.9 nM: TGI [10]
